Measurements from PMC4176091, “Novel expression of Haemonchus contortus vaccine candidate aminopeptidase H11 using the free-living nematode Caenorhabditis elegans” (Veterinary Research, 2013).

Experiments:
Experiment in all cases: aminopeptidase assay, absorbance at […] nm
Format in all cases: biochemical
Details in all cases: 0.5 mM substrate; 50 mM NaPO4, pH 5.5 and 7; 2 h at 37 °C then overnight at room temperature
H11 (rH11, isoform H11) = target: T1, H11 (rH11, isoform H11) (Haemonchus contortus, UniProt Q10737)
T1 construct: soluble, expressed in C. elegans; N-terminal transmembrane domain (35 aa) replaced by Hmcp-6 signal peptide; C-terminal 10 aa His tag; cobalt resin

rH11-1 = target: T2, rH11-1 (Haemonchus contortus, UniProt Q9U5P6)
T2 construct: gene h11-1; soluble, expressed in C. elegans; N-terminal transmembrane domain (35 aa) replaced by Hmcp-6 signal peptide; C-terminal 10 aa His tag; cobalt resin

rH11-5 = target: T3, rH11-5 (Haemonchus contortus, UniProt V5K5H8)
T3 construct: soluble, expressed in C. elegans; N-terminal transmembrane domain (35 aa) replaced by Hmcp-6 signal peptide; C-terminal 10 aa His tag; cobalt resin

rH11-4 = target: T4, rH11-4 (Haemonchus contortus, UniProt Q967C6)
T4 construct: gene h11-4; soluble, expressed in C. elegans; N-terminal transmembrane domain (35 aa) replaced by Hmcp-6 signal peptide; C-terminal 10 aa His tag; N-glycosylated; cobalt resin
T4 sequence (Q967C6 entry or part of it): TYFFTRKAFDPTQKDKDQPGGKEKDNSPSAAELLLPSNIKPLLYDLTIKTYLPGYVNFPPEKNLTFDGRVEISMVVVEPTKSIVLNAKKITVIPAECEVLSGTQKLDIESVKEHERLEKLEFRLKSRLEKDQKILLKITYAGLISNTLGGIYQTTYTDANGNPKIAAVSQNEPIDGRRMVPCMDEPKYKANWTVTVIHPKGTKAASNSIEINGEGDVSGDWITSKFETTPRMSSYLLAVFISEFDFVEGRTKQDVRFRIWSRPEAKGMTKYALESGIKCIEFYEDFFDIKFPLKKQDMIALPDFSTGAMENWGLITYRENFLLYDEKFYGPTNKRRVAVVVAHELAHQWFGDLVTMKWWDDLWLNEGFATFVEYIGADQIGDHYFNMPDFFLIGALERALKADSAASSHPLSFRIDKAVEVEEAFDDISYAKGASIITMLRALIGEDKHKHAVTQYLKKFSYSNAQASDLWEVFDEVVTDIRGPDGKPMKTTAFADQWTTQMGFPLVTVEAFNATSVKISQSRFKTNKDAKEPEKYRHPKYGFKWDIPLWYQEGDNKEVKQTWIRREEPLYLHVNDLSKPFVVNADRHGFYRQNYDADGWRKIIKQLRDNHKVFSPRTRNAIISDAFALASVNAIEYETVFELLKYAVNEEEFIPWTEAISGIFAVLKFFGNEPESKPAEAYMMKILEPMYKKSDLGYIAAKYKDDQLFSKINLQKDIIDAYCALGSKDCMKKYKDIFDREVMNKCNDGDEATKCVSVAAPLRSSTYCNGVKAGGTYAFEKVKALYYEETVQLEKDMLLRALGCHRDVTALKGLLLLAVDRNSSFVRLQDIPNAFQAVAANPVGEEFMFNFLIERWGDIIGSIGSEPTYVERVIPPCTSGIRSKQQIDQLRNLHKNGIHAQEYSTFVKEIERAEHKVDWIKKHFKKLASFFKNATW

T2 sequence (Q9U5P6 entry or part of it): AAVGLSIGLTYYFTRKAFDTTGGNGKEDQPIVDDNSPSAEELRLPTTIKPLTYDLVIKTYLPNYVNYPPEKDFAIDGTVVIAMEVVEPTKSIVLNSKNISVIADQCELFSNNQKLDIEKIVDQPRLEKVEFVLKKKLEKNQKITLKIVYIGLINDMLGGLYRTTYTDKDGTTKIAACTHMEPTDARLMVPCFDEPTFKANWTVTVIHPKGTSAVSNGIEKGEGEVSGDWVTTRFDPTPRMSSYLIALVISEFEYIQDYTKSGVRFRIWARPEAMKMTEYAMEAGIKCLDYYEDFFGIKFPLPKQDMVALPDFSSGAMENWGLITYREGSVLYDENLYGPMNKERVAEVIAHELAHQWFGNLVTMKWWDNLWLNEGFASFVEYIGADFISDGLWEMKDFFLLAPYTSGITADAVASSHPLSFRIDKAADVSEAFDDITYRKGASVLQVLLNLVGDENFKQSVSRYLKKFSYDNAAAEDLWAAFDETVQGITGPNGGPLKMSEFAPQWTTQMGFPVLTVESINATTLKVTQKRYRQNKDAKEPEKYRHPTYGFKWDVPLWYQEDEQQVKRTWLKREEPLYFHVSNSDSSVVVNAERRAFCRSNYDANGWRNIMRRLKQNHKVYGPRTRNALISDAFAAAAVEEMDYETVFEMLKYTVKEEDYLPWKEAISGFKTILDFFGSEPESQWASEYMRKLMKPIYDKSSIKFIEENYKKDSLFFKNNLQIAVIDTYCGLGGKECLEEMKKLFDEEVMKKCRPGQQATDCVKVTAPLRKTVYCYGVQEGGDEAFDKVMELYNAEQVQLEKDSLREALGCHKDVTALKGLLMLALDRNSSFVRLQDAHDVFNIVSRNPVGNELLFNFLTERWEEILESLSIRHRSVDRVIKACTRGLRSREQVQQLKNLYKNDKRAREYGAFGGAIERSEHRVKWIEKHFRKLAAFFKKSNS
T3 sequence (V5K5H8 entry or part of it): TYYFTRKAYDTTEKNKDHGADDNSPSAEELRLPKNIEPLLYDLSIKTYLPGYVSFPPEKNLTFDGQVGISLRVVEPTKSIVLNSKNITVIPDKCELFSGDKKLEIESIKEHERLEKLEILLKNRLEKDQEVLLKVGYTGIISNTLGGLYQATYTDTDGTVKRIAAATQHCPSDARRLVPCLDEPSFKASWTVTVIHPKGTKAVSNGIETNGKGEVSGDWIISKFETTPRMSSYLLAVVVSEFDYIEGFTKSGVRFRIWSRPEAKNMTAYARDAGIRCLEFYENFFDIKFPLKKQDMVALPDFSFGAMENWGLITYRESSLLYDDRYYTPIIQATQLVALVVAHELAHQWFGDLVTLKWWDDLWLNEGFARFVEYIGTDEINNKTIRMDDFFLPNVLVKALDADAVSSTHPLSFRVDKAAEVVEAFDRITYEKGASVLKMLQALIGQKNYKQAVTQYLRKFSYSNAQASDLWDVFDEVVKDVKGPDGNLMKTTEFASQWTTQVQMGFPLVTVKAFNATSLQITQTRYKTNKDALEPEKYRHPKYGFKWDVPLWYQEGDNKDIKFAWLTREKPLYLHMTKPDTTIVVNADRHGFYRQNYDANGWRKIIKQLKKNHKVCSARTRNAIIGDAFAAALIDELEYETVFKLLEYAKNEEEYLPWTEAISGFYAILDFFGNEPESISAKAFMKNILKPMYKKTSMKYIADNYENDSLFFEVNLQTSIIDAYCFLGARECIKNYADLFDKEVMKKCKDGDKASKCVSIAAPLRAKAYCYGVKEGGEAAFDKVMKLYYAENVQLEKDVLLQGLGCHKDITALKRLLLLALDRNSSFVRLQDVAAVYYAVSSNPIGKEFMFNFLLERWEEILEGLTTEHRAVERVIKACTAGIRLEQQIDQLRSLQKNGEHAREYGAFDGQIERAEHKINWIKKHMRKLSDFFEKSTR
T1 sequence (Q10737 36-972): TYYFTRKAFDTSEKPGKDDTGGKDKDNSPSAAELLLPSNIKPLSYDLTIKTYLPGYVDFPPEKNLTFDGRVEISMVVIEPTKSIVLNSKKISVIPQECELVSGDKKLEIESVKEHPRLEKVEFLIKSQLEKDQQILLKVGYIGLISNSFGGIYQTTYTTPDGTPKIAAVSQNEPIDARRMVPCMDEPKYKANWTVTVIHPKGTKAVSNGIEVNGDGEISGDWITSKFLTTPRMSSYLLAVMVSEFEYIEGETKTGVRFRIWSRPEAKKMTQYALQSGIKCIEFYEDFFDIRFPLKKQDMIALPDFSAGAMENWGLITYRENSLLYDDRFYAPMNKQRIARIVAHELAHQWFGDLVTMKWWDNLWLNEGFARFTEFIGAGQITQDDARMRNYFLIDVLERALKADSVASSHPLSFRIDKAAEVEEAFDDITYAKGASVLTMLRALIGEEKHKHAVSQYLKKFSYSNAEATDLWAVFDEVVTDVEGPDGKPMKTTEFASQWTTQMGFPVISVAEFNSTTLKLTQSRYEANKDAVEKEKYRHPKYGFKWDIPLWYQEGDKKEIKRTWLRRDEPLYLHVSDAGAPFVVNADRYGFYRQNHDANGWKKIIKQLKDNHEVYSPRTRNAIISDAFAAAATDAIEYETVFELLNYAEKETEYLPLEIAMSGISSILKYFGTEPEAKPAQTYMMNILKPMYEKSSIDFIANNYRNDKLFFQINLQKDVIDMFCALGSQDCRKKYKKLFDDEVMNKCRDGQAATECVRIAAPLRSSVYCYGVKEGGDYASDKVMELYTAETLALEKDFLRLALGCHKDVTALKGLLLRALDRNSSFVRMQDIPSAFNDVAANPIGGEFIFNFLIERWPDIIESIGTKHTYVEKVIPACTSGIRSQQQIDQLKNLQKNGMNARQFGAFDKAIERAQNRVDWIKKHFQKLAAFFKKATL

CC(C)C[C@H](N)C(=O)Nc1ccc([N+](=O)[O-])cc1 [L-leucine p-nitroanilide]
aminopeptidase assay, absorbance at 405 nm (H11 (rH11, isoform H11)): rH11-4 and rH11-5 showing greater activity than H11 and H11-1 isoforms
aminopeptidase assay, absorbance at 405 nm (rH11-1): rH11-4 and rH11-5 showing greater activity than H11 and H11-1 isoforms
aminopeptidase assay, absorbance at 405 nm (rH11-5): rH11-4 and rH11-5 showing greater activity than H11 and H11-1 isoforms
aminopeptidase assay, absorbance at 405 nm (rH11-4): rH11-4 and rH11-5 showing greater activity than H11 and H11-1 isoforms
